Data published in patent publication US4467104A, “Esters of 2-(2-chlorocarbonyl)-2-(2,3-dihydro-2-alkylbenzofuran-7-yl)-hydrazinecar boxylic acid” (Shell Oil Company, priority 1982, dated 1984).

How the values were obtained:
Format in all cases: in vivo
[1] = tested on: Houseflies (Musca domestica (Linne)); assay: Housefly spray test (mortality after 18-20 hours); conditions: concentration by weight in the formulation
Procedure: I. Houseflies (Musca domestica (Linne)) were tested by placing 50 4- to 5-day old housflies into a spray cage and spraying with 0.6 ml of a solution of test compound. After spraying, the flies were anesthetized with CO2 and transferred to a recovery cage containing a milk pad for food. The cages were held for 18-20 hours after which mortality counts were made. Both dead and moribund flies were counted. The tests were conducted employing several different dosage rates for each test compound.
(§1) In the case of each species of insect, the concentration of the test compound by weight in the formulation required to kill fifty percent of the test insects--i.e., the LC50 dosage--was determined.

[2] = tested on: Corn earworm larvae (Heliothis zea (Boddie)); assay: Corn earworm larvae test on sprayed broad bean plant (44-46 hours); conditions: concentration by weight in the formulation
Procedure: V. Corn earworm larvae (Heliothis zea (Boddie)) were tested by spraying a broad bean plant with dilutions of an acetone solution of the test compound in water containing an emulsifier. Immediately after spraying, 5 larvae were transferred to the plant and held for 44-46 hours, at which time the dead and moribund larvae were counted. The tests were conducted employing several different dosage rates for each test compound.
as §1

[3] = tested on: Pea aphids (Acyrthosiphon pisum (Harris)); assay: Pea aphid test on sprayed broad bean plants (living aphids counted at 18 to 20 hours); conditions: concentration by weight in the formulation
Procedure: II. Pea aphids (Acyrthosiphon pisum (Harris)) were tested by placing about 100 aphids on broad bean plants. The plants were sprayed with dilutions of an acetone solution of the test compound in water containing an emulsifier and held in containers under laboratory conditions for 18 to 20 hours, at which time the living aphids in the containers were counted. The tests were conducted employing several different dosage rates for each test compound.
as §1

[4] = tested on: Adult female two-spotted mites (Tetranychus urticae (Koch)); assay: Two-spotted spider mite test on sprayed pinto bean leaves (about 20 hours); conditions: concentration by weight in the formulation
Procedure: III. Adult female two-spotted mites (Tetranychus urticae (Koch) was tested by placing 50-75 mites on the bottom side of leaves of pinto bean plants. The leaves were sprayed with dilutions of an acetone solution of the test compound in water containing an emulsifier and kept under laboratory conditions for about 20 hours, at which time mortality counts were made. The tests were conducted employing several different dosage rates for each test compound.
as §1

[5] = tested on: Mosquito larvae (Anopheles albimanus (Weide)); assay: Mosquito larvae test in water (mortality after 18-22 hours); conditions: in distilled water
Procedure: IV. Mosquito larvae (Anopheles albimanus (Weide)) were tested by placing 10 living and active mosquito larvae in a jar containing a 0.1 ml aliquot of a 1% acetone solution of the test compound thoroughly mixed with 100 ml of distilled water. After 18-22 hours, mortality counts were taken. Both dead and moribund larvae were counted as dead. […] The tests were conducted employing several different dosage rates for each compound.
as §1

SMILES | LC50 Housefly [1] | LC50 Corn Earworm [2] | LC50 Pea Aphid [3] | LC50 Spider mite [4] | LC50 Mosquito Larvae [5]
CCOC(=O)NN(C(=O)Cl)c1cccc2c1OC(C)(C)C2 [Compound 2, 2-(2-chlorocarbonyl)-2-(2,3-dihydro-2,2-dimethyl-benzofuran-7-yl)hydrazinecarboxylic acid ethyl ester] | > 0.5 % w | 0.1 % w | 0.0003 % w | > 0.2 % w | > 0.1 ppm
COC(=O)NN(C(=O)Cl)c1ccc(C)c2c1OC(C)(C)C2 [Compound 4, 2-(2-chlorocarbonyl)-2-(2,3-dihydro-2,2,4-trimethylbenzofuran-7-yl)hydrazinecarboxylic acid methyl ester] | > 0.5 % w | 0.033 % w | 0.0002 % w | > 0.2 % w | 0.02 ppm
COC(=O)NN(C(=O)Cl)c1cccc2c1OC(C)(C)C2 [Compound 1, 2-(2-chlorocarbonyl)-2-(2,3-dihydro-2,2-dimethylbenzofuran-7-yl)hydrazinecarboxlic acid methyl ester] | > 0.5 % w | 0.043 % w | 0.00008 % w | > 0.02 % w | 0.016 ppm
COC(=O)NN(C(=O)Cl)c1cccc2c1OC(C)C2 (centres unmarked) [Compound 5, 2-(2-chlorocarbony)-2-(2,3-dihydro-2-methylbenzofuran-7-yl)-hydrazinecarboxylic acid methyl ester] | > 0.5 % w | 0.057 % w | 0.0005 % w | > 0.2 % w | 0.039 ppm
